Results: patent publication US20250122207A1, “AP2 ASSOCIATED KINASE 1 INHIBITORS AND USES THEREOF” (Satellos Bioscience Inc., priority 2023, published 2025)
pIC50: −log10 of the molar value.

Key:
[1] = target: T1, AAK1 (amino acids T27-A365) (Homo sapiens, UniProt Q2M2I8); assay: AAK1 pSENs assay; format: biochemical; settings: class symbols; read-out: AAK1 pSENs: EIC50
T1 construct: against AAK1 (amino acids T27-A365); 6His (N, cleaved yes)
Procedure: (§1) The recombinant proteins were independently expressed in Escherichia coli BL21(DE3) cells cultured in Luria-Bertani (LB) medium until OD600 reached 0.6-0.8, then cooled to 15° C. and supplemented with 0.5 mM isopropyl 1-thio-D-galactopyranoside (IPTG) induce protein expression 16 h. Cells were harvested and resuspended in lysis buffer (50 mM HEPES pH 7.5, 500 mM NaCl, 5 mM imidazole, 5% glycerol, 0.5 mM Tris (2-carboxyethyl) phosphine (TCEP), cOmplete Protease Inhibitor Tablet (Roche)) and lysed by microfludics high pressure homogenizer (UH-06, Union-Biotech). Proteins were purified using […] chromatography (His FF column, Bestchrom) and eluted stepwise in binding buffer with 20-300 mM imidazole. Removal of the hexahistidine tag was performed at 4° C. overnight using recombinant TEV protease and reacted with BirA to obtain the corresponding biotinylated-AAK1, BIKE or GAK proteins. Further separated in the reverse Strep column (Strep-Tactin® XT, IBA). The Biotin elution sample was collected containing untagged biotinylated protein was then purified by Ion-exchange chromatography (Mono Q 10/100 GL, Cytiva) and Size-exclusion chromatography (HiLoad 16/600 Superdex 200 pg, Cytiva). The pure protein was stored in a storage buffer 50 mM HEPES (pH 7.5), 300 mM NaCl, 5% glycerol at −80° C. Protein were characterized by SDS-PAGE, LC-MS and aSEC.
(§2) This example describes one illustrative method for determining the IC50 of the compounds of the present invention against AAK1 (amino acids T27-A365). AAK1 protein was dissolved at 20 nM in 1× enzyme solution (50 mM HEPES pH7.5, 10 mM MgCl2, 1 mM DTT, 1% glycerol, 0.5 mM EGTA, 0.01% Briji35, 0.02% BSA) and 12.5 ul was incubated with 250 nl DMSO or 250 nl compound in DMSO at 25° C. for 15 min. The reaction was started by addition of 12.5 ul of 30 uM AQT0759 (Assayquant, CSKS-AQT0759B) and 70 uM ATP which were diluted in 1× substrate dilution buffer (50 mM HEPES pH7.5, 10 mM MgCl2, 1 mM DTT, 1% glycerol, 0.5 mM EGTA, 0.01% Briji35).

AAK1 = AAK1 (Homo sapiens, UniProt Q2M2I8); assay: pAP2M1 cell-based assay (in-cell Western); settings: Hela cells co-transfected with AP2M1 and AAK1, 3 hr treatment; class symbols; read-out: AAK1 In-cell Western: IC50
Chain of AAK1 (Q2M2I8 whole entry): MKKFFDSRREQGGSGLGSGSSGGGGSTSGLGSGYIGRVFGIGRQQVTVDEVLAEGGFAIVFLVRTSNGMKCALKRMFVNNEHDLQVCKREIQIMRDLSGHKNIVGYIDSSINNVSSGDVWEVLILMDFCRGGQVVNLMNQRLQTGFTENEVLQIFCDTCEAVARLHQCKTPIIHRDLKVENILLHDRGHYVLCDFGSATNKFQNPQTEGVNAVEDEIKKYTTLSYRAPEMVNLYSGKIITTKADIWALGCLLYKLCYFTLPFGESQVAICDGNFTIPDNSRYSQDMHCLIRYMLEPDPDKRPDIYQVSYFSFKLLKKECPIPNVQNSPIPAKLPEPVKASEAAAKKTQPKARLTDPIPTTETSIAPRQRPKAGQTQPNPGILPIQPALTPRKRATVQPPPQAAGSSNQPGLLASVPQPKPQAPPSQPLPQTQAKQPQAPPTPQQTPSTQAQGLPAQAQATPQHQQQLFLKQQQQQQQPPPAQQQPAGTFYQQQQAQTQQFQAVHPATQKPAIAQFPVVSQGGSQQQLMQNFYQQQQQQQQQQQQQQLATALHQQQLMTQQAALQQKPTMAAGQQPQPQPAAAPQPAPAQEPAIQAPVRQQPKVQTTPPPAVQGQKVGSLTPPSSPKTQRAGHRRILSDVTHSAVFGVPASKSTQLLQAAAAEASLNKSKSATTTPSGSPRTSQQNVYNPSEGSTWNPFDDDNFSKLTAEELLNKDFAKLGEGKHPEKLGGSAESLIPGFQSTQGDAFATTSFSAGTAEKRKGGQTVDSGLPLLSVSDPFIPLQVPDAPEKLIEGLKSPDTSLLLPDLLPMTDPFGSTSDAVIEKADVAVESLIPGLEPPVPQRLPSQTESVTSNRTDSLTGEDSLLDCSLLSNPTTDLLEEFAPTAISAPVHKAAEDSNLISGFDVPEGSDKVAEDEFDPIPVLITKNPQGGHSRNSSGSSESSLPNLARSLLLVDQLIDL
Text: pAP2M1 Cell-Based Assay (in-Cell Western):
The plate was read on Licor Odyssey CLx imaging system (LICOR) to acquire fluorescence intensity at 700 channel and 800 channel.
Data analysis: Fluorescence intensity at 700 channel served as internal standard and 800 channel were normalized with 700 channel.

[2] = target: T2, BIKE (amino acids S38-E345) (K320A, K321A) (Homo sapiens, UniProt Q9NSY1, K320A/K321A); assay: BIKE pSENs assay; format: biochemical; settings: class symbols; read-out: BIKE pSENs: IC50
T2 construct: against BIKE (amino acids S38-E345) (K320A, K321A); 6His (N, cleaved yes)
T2 sequence (Q9NSY1 38-345 K320A/K321A): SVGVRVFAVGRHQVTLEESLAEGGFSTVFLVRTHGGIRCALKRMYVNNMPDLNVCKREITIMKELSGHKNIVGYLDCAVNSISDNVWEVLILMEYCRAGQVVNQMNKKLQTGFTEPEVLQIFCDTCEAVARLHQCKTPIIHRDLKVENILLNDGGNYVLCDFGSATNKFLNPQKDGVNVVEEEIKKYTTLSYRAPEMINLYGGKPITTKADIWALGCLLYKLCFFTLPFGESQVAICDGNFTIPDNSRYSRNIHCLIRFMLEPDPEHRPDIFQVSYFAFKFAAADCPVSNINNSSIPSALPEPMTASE
Procedure: as §1
as §2, with “BIKE” for “This example describes one illustrative method for determining the IC50 of the compounds of the present invention against AAK1 (amino acids T27-A365). AAK1”, “40” for “70”

T1 sequence (Q2M2I8 27-365): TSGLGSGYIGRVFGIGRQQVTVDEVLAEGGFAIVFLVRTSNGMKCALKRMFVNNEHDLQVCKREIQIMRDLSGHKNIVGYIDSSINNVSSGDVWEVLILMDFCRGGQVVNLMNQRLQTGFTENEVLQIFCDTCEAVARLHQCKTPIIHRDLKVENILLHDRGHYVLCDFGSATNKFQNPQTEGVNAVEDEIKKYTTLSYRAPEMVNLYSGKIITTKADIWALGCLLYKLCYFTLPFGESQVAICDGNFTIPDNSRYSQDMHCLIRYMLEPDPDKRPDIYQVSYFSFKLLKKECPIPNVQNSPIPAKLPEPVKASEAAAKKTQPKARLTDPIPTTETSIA

Compound	pIC50 [1]	pIC50 (AAK1)	pIC50 [2]
O=C(O[C@H]1CC(=O)N(C2CCNCC2)C1)N1CCN(c2ccn3ncc(-c4cccnc4OC4CC4)c3n2)CC1 [Compound I-32, [(3S)-5-Oxo-1-(4-piperidyl)pyrrolidin-3-yl]4-[3-[2-(cyclopropoxy)-3-pyridyl]pyrazolo[1,5-a]pyrimidin-5-yl]piperazine-1-carboxylate]	7.30 to 9.00	< 5.82	6.82 to 7.29
COC(=O)N1CC(Oc2ncccc2-c2cnn3ccc(N4CCN(C(=O)O[C@@H]5CNC(=O)C5)CC4)nc23)C1 [Compound I-58, [(3S)-5-oxopyrrolidin-3-yl]-4-[3-[2-(1-methoxycarbonylazetidin-3-yl)oxy-3-pyridyl]pyrazolo[1,5-a]pyrimidin-5-yl]piperazine-1-carboxylate]	7.30 to 9.00	5.82 to 6.30	6.30 to 6.82
COc1ncccc1-c1cnn2ccc(N3CCN(C(=O)O[C@H]4CO[C@H]5OCC[C@H]54)CC3)nc12 [Compound I-65, (3R,3aS,6aR)-hexahydrofuro[2,3-b]furan-3-yl 4-(3-(2-methoxypyridin-3-yl)pyrazolo[1,5-a]pyrimidin-5-yl)piperazine-1-carboxylate]	7.30 to 9.00	6.30 to 6.82	6.30 to 6.82
COc1ncccc1-c1cnn2ccc(N3CCN(C(=O)OC4CNC(=O)C4)CC3)nc12 (stereo not shown) [Compound I-6, (5-Oxopyrrolidin-3-yl) 4-[3-(2-methoxy-3-pyridyl)pyrazolo[1,5-a]pyrimidin-5-yl]piperazine-1-carboxylate]	7.30 to 9.00	5.82 to 6.30	7.30 to 9.00
CN(CCNc1ccn2ncc(-c3cccnc3OC3CC3)c2n1)C(=O)O[C@@H]1CNC(=O)C1 [Compound I-60, [(3S)-5-oxopyrrolidin-3-yl]N-[2-[[3-[2-(cyclopropoxy)-3-pyridyl]pyrazolo[1,5-a]pyrimidin-5-yl]amino]ethyl]-N-methyl-carbamate]	6.82 to 7.29	< 5.82	5.82 to 6.30
CC(C)(C)OC(=O)N1CC(Oc2ncccc2-c2cnn3ccc(N4CCN(C(=O)O[C@@H]5CNC(=O)C5)CC4)nc23)C1 [Compound I-42]	7.30 to 9.00	5.82 to 6.30	6.30 to 6.82
CN1C[C@@H](OC(=O)N2CCN(c3nc4c(-c5cccnc5OC5CCOCC5)cnn4cc3F)CC2)CC1=O [Compound I-122, [(3S)-1-methyl-5-oxo-pyrrolidin-3-yl]4-[6-fluoro-3-(2-tetrahydropyran-4-yloxy-3-pyridyl)pyrazolo[1,5-a]pyrimidin-5-yl]piperazine-1-carboxylate]	6.82 to 7.29	5.82 to 6.30	6.30 to 6.82
CC(C)(C)OC(=O)N1CCC(N2C[C@@H](OC(=O)N3CCN(c4ccn5ncc(-c6cccnc6OC6CC6)c5n4)CC3)CC2=O)CC1 [Compound I-30, [(3S)-1-(1-tert-Butoxycarbonyl-4-piperidyl)-5-oxo-pyrrolidin-3-yl]4-[3-[2-(cyclopropoxy)-3-pyridyl]pyrazolo[1,5-a]pyrimidin-5-yl]piperazine-1-carboxylate]	6.82 to 7.29	< 5.82	5.82 to 6.30
[2H]C([2H])([2H])N1C[C@@H](OC(=O)N2CCN(c3nc4c(-c5cccnc5OC5CC5)cnn4cc3F)CC2)CC1=O [Compound I-116, [(3S)-5-oxo-1-(trideuteriomethyl)pyrrolidin-3-yl]4-[3-[2-(cyclopropoxy)-3-pyridyl]-6-fluoro-pyrazolo[1,5-a]pyrimidin-5-yl]piperazine-1-carboxylate]	7.30 to 9.00	–	6.82 to 7.29
[2H]C([2H])([2H])N1C[C@@H](OC(=O)N2CCN(c3nc4c(-c5cc(F)cnc5OC5CC5)cnn4cc3F)CC2)CC1=O [Compound I-118, [(3S)-5-oxo-1-(trideuteriomethyl)pyrrolidin-3-yl]4-[3-[2-(cyclopropoxy)-5-fluoro-3-pyridyl]-6-fluoro-pyrazolo[1,5-a]pyrimidin-5-yl]piperazine-1-carboxylate]	7.30 to 9.00	–	6.82 to 7.29
COC(=O)N1CC(Oc2ncccc2-c2cnn3ccc(N4CCN(C(=O)O[C@@H]5CC(=O)N(CCO)C5)CC4)nc23)C1 [Compound I-84, [(3R)-1-(2-hydroxyethyl)-5-oxo-pyrrolidin-3-yl]4-[3-[2-(1-methoxycarbonylazetidin-3-yl)oxy-3-pyridyl]pyrazolo[1,5-a]pyrimidin-5-yl]piperazine-1-carboxylate]	6.30 to 6.82	< 5.82	–
Cc1cn2ncc(-c3cccnc3OC3CC3)c2nc1N1CCN(C(=O)O[C@H]2CC(=O)N(C)C2)CC1 [Compound I-111, [(3S)-1-methyl-5-oxo-pyrrolidin-3-yl]-4-[3-[2-(cyclopropoxy)-3-pyridyl]-6-methyl-pyrazolo[1,5-a]pyrimidin-5-yl]piperazine-1-carboxylate]	5.82 to 6.30	< 5.82	–
CC1(OC(=O)N2CCN(c3ccn4ncc(-c5cccnc5OC5CCC5)c4n3)CC2)COC1 [Compound I-17, (3-Methyloxetan-3-yl) 4-[3-[2-(cyclobutoxy)-3-pyridyl]pyrazolo[1,5-a]pyrimidin-5-yl]piperazine-1-carboxylate]	7.30 to 9.00	5.82 to 6.30	–
O=C(O[C@@H]1CC(=O)N(C2CCNCC2)C1)N1CCN(c2ccn3ncc(-c4cccnc4OC4CC4)c3n2)CC1 [Compound I-33, (R)-5-Oxo-1-(piperidin-4-yl)pyrrolidin-3-yl 4-(3-(2-cyclopropoxypyridin-3-yl)pyrazolo[1,5-a]pyrimidin-5-yl)piperazine-1-carboxylate]	< 5.82	< 5.82	–
CN(C)CCN1CC[C@@](C)(OC(=O)N2CCN(c3ccn4ncc(-c5cccnc5OC5CC5)c4n3)CC2)C1 [Compound I-53, (R)-1-(2-(dimethylamino)ethyl)-3-(methylpyrrolidin-3-yl)-4-(3-(2-cyclopropoxypyridin-3-yl)pyrazolo[1,5-a]pyrimidin-5-yl)piperazine-1-carboxylate]	7.30 to 9.00	6.30 to 6.82	–
CC(C)(C)OC(=O)N1CC(Nc2ncccc2-c2cnn3ccc(N4CCN(C(=O)O[C@@H]5CNC(=O)C5)CC4)nc23)C1 [Compound I-48, [(3S)-5-oxopyrrolidin-3-yl]4-[3-[2-[(1-tert-butoxycarbonylazetidin-3-yl)amino]-3-pyridyl]pyrazolo[1,5-a]pyrimidin-5-yl]piperazine-1-carboxylate]	5.82 to 6.30	< 5.82	–
O=C1C[C@H](OC(=O)N[C@@H]2CCN(c3ccn4ncc(-c5cccnc5OC5CC5)c4n3)C2)CN1 [Compound I-54, [(3S)-5-oxopyrrolidin-3-yl]N-[(3R)-1-[3-[2-(cyclopropoxy)-3-pyridyl]pyrazolo[1,5-a]pyrimidin-5-yl]pyrrolidin-3-yl]carbamate]	5.82 to 6.30	< 5.82	–
O=C1C[C@H](OC(=O)N2CCN(c3ccn4ncc(-c5cccnc5OC5CC5)c4n3)C[C@H]2C(=O)O)CN1 [Compound I-41-4C, (S)-4-(3-(2-Cyclopropoxypyridin-3-yl)pyrazolo[1,5-a]pyrimidin-5-yl)-1-((((S)-5-oxopyrrolidin-3-yl)oxy)carbonyl)piperazine-2-carboxylic acid]	< 5.82	< 5.82	–
CN1CC(Oc2ncccc2-c2cnn3ccc(N4CCN(C(=O)O[C@@H]5CNC(=O)C5)CC4)nc23)C1 [Compound I-44, (S)-5-Oxopyrrolidin-3-yl 4-(3-(2-((1-methylazetidin-3-yl)oxy)pyridin-3-yl)pyrazolo[1,5-a]pyrimidin-5-yl)piperazine-1-carboxylate]	< 5.82	< 5.82	–
